Experiment in all cases: growth of human tumour cells (NCI), 48 h
Assay [1] deals with A549.
Assay [2] deals with HCT-15.
Assay [3] relates to HL-60.
In assay [4] the test system is HOP-62.
For assay [5], the system named is LOX IMVI.
In assay [6] the test system is M14.
Assay [7] concerns NCI-H226.
Assay [8] deals with NCI-H460.
For assay [9], the system named is OVCAR-5.
Assay [10] deals with OVCAR-8.
Assay [11] concerns SF-268.
In assay [12] the test system is SF-539.
Assay [13] relates to SK-MEL-28.
Assay [14] has as its system SK-OV-3.
Assay [15] deals with SW-620.
The subject of assay [16] is UACC-257.
In assay [17] the test system is UACC-62.
The test system of assay [18] is UO-31.
The test system of assay [19] is Malme-3M.

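Compound exposure: 48 hours, 5 concentrations, 96-well plates. GI50 is the concentration that inhibits growth by half.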 Calls of active or inactive are those of the source. No stated cut-off is given here; in the data, active = GI50 up to about 1.1 µM and inactive = higher.

For `O=C(CC(C(=O)c1ccsc1)c1ccc2c(c1)OCO2)c1ccccc1` (configuration not stated), the GI50 in [1] is 8.17 µM (inactive); in assay [2], more than 100 µM; in [3], > 100 µM (inactive); in assay [4], > 100 µM (inactive); in assay [5] it was > 100 µM (inactive); in assay [6], > 100 µM (inactive). The GI50 is > 100 µM (inactive) in assay [7]; 94 µM (inactive) in assay [8]; > 100 µM (inactive) in assay [9]; > 100 µM (inactive) in [10]; > 100 µM (inactive) in assay [11]; > 100 µM (inactive) in assay [12]. In addition, the GI50 in [13], in assay [14], in assay [15], in [16], in [17] and in assay [18] was > 100 µM (inactive) in each case.
For the compound `O=CNNC(=O)Nc1ccc(Cl)cc1`, the GI50 in assay [1] is > 100 µM (inactive); in assay [2] it was more than 100 µM; in assay [3], > 100 µM (inactive); in assay [4], > 100 µM (inactive); in assay [6], > 100 µM (inactive); in assay [19] it was > 100 µM (inactive). The GI50 in [7] was 31.1 µM (inactive); in assay [9], > 100 µM (inactive); in assay [10], > 100 µM (inactive); in assay [11], > 100 µM (inactive); in [12], > 100 µM (inactive); in [13] it was > 100 µM (inactive). For the same compound, the GI50 in [14] was > 100 µM (inactive); in [15], > 100 µM (inactive); in [16], > 100 µM (inactive); in assay [17] it was > 100 µM (inactive); in assay [18], 68.7 µM (inactive).
Take `CC1=C(C(=O)Nc2ccc([N+](=O)[O-])cc2)C(c2ccc3c(c2)OCO3)C(C(=O)Nc2ccc([N+](=O)[O-])cc2)=C(C)N1`: the GI50 was 24.2 µM (inactive) in assay [1]; 8.09 µM in assay [2]; 37.6 µM (inactive) in assay [4]; 6.78 µM (inactive) in [6]; 23.9 µM (inactive) in [19]; 14.7 µM (inactive) in assay [7]. Besides, the GI50 in assay [8] was 10 µM (inactive); in [9], 59.7 µM (inactive); in assay [10], 3.16 µM (inactive); in assay [11], > 100 µM (inactive); in [12], 27.7 µM (inactive); in assay [13] it was 24.9 µM (inactive). For the same compound, the GI50 is > 100 µM (inactive) in assay [14]; 51.9 µM (inactive) in assay [15]; 5.6 µM (inactive) in assay [16]; 5.21 µM (inactive) in assay [17]; 6.4 µM (inactive) in assay [18].
As to `Cc1ccc(NC(=O)CCC(=O)C(C#N)c2ccc(Cl)cc2)cc1C` (configuration not stated), the GI50 in assay [1] was > 100 µM (inactive); in assay [2] it was more than 100 µM; in assay [3], > 100 µM (inactive); in assay [4], > 100 µM (inactive); in assay [5], > 100 µM (inactive); in assay [6], > 100 µM (inactive). In addition, the GI50 in assay [19], in assay [7], in [8], in assay [9], in assay [10] and in [11] was > 100 µM (inactive) throughout. The GI50 in assay [12], in [13], in assay [15], in assay [16], in [17] and in assay [18] was > 100 µM (inactive) throughout.
Regarding `CCCCc1ccc(Nc2nc(Cl)c3ncn(C4CC(Oc5ccc(C)cc5)C(COc5ccc(C)cc5)O4)c3n2)cc1` (configuration not stated), the GI50 in assay [1] is > 100 µM (inactive); in [2] it was more than 100 µM; in assay [3], 89.9 µM (inactive); in assay [4] it was 75.2 µM (inactive); in [5], > 100 µM (inactive); in [6] it was > 100 µM (inactive). For the same compound, the GI50 in [19], in [7], in assay [9], in assay [10], in assay [11] and in assay [12] was > 100 µM (inactive) in each case. Besides, the GI50 in assay [14], in assay [15], in [16], in assay [17] and in [18] was > 100 µM (inactive) throughout.
Consider `Cc1cc(=O)oc2cc(OCCCOc3ccc4c(C)cc(=O)oc4c3)ccc12`, for which the GI50 was > 100 µM (inactive) in assay [1]; more than 100 µM in assay [2]; > 100 µM (inactive) in assay [3]; 63.8 µM (inactive) in assay [4]; > 100 µM (inactive) in assay [5]; > 100 µM (inactive) in [6]. For the same compound, the GI50 in assay [19], in assay [7], in [8], in assay [10], in assay [11] and in assay [12] was > 100 µM (inactive) each time. The GI50 in assay [13], in assay [15], in assay [16], in assay [17] and in assay [18] was > 100 µM (inactive) each time.
Regarding `CN(C)CCNC(=O)Cc1ccccc1Nc1c(Cl)cccc1Cl`, the GI50 in assay [1] is 18 µM (inactive); in assay [2], 15.6 µM; in [3], 14.7 µM (inactive); in assay [4], 15 µM (inactive); in [5], 13.6 µM (inactive); in assay [6], 17.3 µM (inactive). In addition, the GI50 in [7] is 17.9 µM (inactive); in assay [8], 10 µM (inactive); in assay [9] it was 11.7 µM (inactive); in [10], 18.9 µM (inactive); in assay [11], 18.2 µM (inactive); in assay [12], 16.5 µM (inactive). The GI50 in assay [13] is 18.5 µM (inactive); in assay [14], 17.6 µM (inactive); in assay [15], 18.2 µM (inactive); in [16], 12.8 µM (inactive); in assay [17], 18.3 µM (inactive); in assay [18] it was 12.6 µM (inactive).
Consider `CCCCCCCCCCCCCCCC(=O)OCCOCCOCCOCCOCCOC(=O)CCCCCCCCCCCCCCC`, for which the GI50 was > 100 µM (inactive) in [1]; more than 100 µM in assay [2]; > 100 µM (inactive) in assay [3]; > 100 µM (inactive) in [4]; > 100 µM (inactive) in [5]; > 100 µM (inactive) in [6]. Further, the GI50 in [19], in assay [7], in assay [8], in assay [9], in assay [10] and in [11] was > 100 µM (inactive) throughout. Besides, the GI50 in [13], in assay [14], in assay [15], in assay [16], in [17] and in assay [18] was > 100 µM (inactive) in each case.
For the compound `O=C(O)CN(c1ccccc1)S(=O)(=O)c1ccc(NC(=O)c2ccccc2)cc1`, the GI50 was > 100 µM (inactive) in assay [1]; more than 100 µM in [2]; > 100 µM (inactive) in assay [3]; > 100 µM (inactive) in assay [5]; > 100 µM (inactive) in assay [6]; > 100 µM (inactive) in [19]. Moreover, the GI50 in assay [8], in [9], in [10], in assay [11], in [12] and in assay [13] was > 100 µM (inactive) throughout. The GI50 in [14], in assay [15], in assay [16], in assay [17] and in assay [18] was > 100 µM (inactive) throughout.
On to `COC(=O)c1c(-c2cc(OC)c(OC)c(OC)c2)oc2ccccc2c1=O`, for which the GI50 in [1] is 83.8 µM (inactive); in assay [2], 15.4 µM; in assay [3], 36.7 µM (inactive); in assay [4], > 100 µM (inactive); in assay [5] it was 37.4 µM (inactive); in assay [6], > 100 µM (inactive). Also, the GI50 is > 100 µM (inactive) in assay [19]; > 100 µM (inactive) in assay [7]; 76.7 µM (inactive) in assay [8]; > 100 µM (inactive) in assay [9]; > 100 µM (inactive) in assay [10]; > 100 µM (inactive) in assay [12]. In addition, the GI50 is > 100 µM (inactive) in [14]; > 100 µM (inactive) in assay [15]; > 100 µM (inactive) in assay [16]; 68.4 µM (inactive) in assay [17]; 66.4 µM (inactive) in [18].
`COC(=O)C1CC/C(=N/c2ccc(C)cc2C)N1` (configuration not stated): the GI50 in assay [1] was > 100 µM (inactive); in assay [2], more than 100 µM; in assay [3], > 100 µM (inactive); in assay [4] it was > 100 µM (inactive); in assay [5], > 100 µM (inactive); in [6], > 100 µM (inactive). The GI50 in assay [19], in assay [7], in assay [8], in assay [9], in assay [10] and in assay [11] was > 100 µM (inactive) each time. Besides, the GI50 in [13], in [14], in [15], in assay [16], in assay [17] and in [18] was > 100 µM (inactive) in each case.
